Tests used:
Assay type in all cases: physicochemical
[1] = Solvent scope of N,N′-dialkylaldaramides (1%) or N,N′-dialkylpentaramides (1%): gelation/solubility behaviour in solvents; parameters: key: g = gelation; s = soluble; p = precipitates; c = crystallizes; ns = not soluble; v = viscous; g* = unstable gel, precipitates; cg = crystalline gel; settings: 1% gelling agent
From the text: It will be understood that the use of the present gelling agents or thickeners to prepare a gel or to thicken a composition is also encompassed by the invention. As is well known, gelling behavior of compounds or compositions is highly unpredictable. […] Preferably, the gelling phenomenon is thermo reversible.
(§1) Preferred examples include aromatic and nonaromatic hydrocarbons, alcohols, ethers, esters, aldehydes, alkanoic acids, epoxides, amines, halogenated hydrocarbons, silicon oils, vegetable oils, phosphoric esters, sulfoxides, water and mixtures thereof. In order to obtain a gel, the gelling agent or thickener is preferably mixed with the composition to be transformed to a gel in an amount of between 0.01 and 50 wt. %, based on the weight of the composition. In a preferred embodiment, the mixture of the gelling agent or thickener and the composition is heated to allow for an even better gel formation or thickening. Typically, the heating will involve raising the temperature of the mixture to about 30-175° C. until a clear solution is obtained. In an alternative embodiment, the gelling agent is first dissolved in a polar or apolar solvent and then added to or sprayed into a composition or solvent to be converted into a gel.
Solvent scope of N,N′-dialkylaldaramides (1%) or N,N′-dialkylpentaramides (1%) 1-24 refers to the compounds prepared in Examples 1-23)

[2] = Gelation of N,N′-dialkyladaramides (1%) in mixtures of solvents; parameters: key: g = gelation; s = soluble; p = precipitates; c = crystallizes; ns = not soluble; v = viscous; g* = unstable gel, precipitates; cg = crystalline gel; settings: 1% gelling agent
From the text: as §1
Gelation of N,N′-dialkyladaramides (1%) in Mixtures of Solvents

[3] = Cold gelation: addition of a solution of the gelling agent (10% in NMP, 0.05 ml) to an organic solution (0.5 ml); parameters: key: g = gelation; s = soluble; p = precipitates; c = crystallizes; ns = not soluble; v = viscous; g* = unstable gel, precipitates; cg = crystalline gel
From the text: as §1
Addition of a solution of the gelling agent (10% in NMP, 0.05 ml) to an organic solution (0.5 ml, “cold gelation”)

[4] = Maximum gelator concentration
From the text: Maximum gelator concentration of 5 (C6-Glu-C6) and 15 (C12-Glu-C12)

[5] = Phase diagram, dropping ball method; settings: in cyclohexane, silicon oil and p-xylene
Description: FIG. 1 depicts a phase diagram of 5 (C6-Glu-C6) and 15 (C12-Glu-C12) determined with the dropping ball method.
Phase Diagram of 5 (C6-Glu-C6) and 15 (C12-Glu-C12)) Dropping Ball Method)
The phase diagram of 5 (C6-Glu-C6) and 15 (C12-Glu-C12) was determined (see FIG. 1) by using the dropping ball method (A. Takashi, M. Sakai, T. Kato, Polym. J., 12 (1980) 335-341, F. S. Schoonbeek, J. H. van Esch, R. Hulst, R. M. Kellogg, B. L. Feringa, Chem. Eur. J., 6 (2000) 2633-2643).

O=C(NC1CCCCCCCCCCC1)[C@@H](O)[C@@H](O)[C@H](O)[C@@H](O)C(=O)NC1CCCCCCCCCCC1 [Example 15, dicyclododecyl D-glucaramide]
Gelation/solubility behaviour in 1,2-dichloroethane ([1]; 1,2-dichloroethane): g | Gelation/solubility behaviour in 2-methoxyethanol ([1]; 2-methoxyethanol): c | Gelation/solubility behaviour in 2-octanol ([1]; 2-octanol): s | Gelation/solubility behaviour in 2-propanol ([1]; 2-propanol): c | Gelation/solubility behaviour in Cyclohexane ([1]; Cyclohexane): g | Gelation/solubility behaviour in Dimethylsulfoxide ([1]; Dimethylsulfoxide): cg | Gelation/solubility behaviour in Ethanol ([1]; Ethanol): cg | Gelation/solubility behaviour in Hexadecane ([1]; Hexadecane): ns | Gelation/solubility behaviour in Toluene ([1]; Toluene): g | Gelation/solubility behaviour in Water ([1]; Water): ns | Gelation/solubility behaviour in methyl benzoic acid ([1]; methyl benzoic acid): g | Gelation/solubility behaviour in methyl laurate ([1]; methyl laurate): g | Gelation/solubility behaviour in n-butylacetate ([1]; n-butylacetate): g | Gelation/solubility behaviour in p-xylene ([1]; p-xylene): g | Gelation/solubility behaviour in silicon oil ([1]; silicon oil): g | Gelation in cyclohexane ([2]; Cyclohexane): g | Gelation in Dioxane ([2]; Dioxane): cg | Gelation in H2O ([2]; H2O): ns | Gelation in cyclohexane/dioxane 1:1 ([2]; cyclohexane/dioxane 1:1): cg | Gelation in dioxane/H2O 1:1 ([2]; dioxane/H2O 1:1): g | Gelation in dioxane/H2O 1:2 ([2]; dioxane/H2O 1:2): ns | Gelation in dioxane/H2O 2:1 ([2]; dioxane/H2O 2:1): cg | Gelation in dioxane/H2O 3:1 ([2]; dioxane/H2O 3:1): cg | Cold gelation in 1,2-dichloroethane ([3]; 0.05 ml added to 0.5 ml 1,2-dichloroethane): c | Cold gelation in Acetone ([3]; 0.05 ml added to 0.5 ml Acetone): cg | Cold gelation in Acetonitril ([3]; 0.05 ml added to 0.5 ml Acetonitril): g | Cold gelation in Chloroform ([3]; 0.05 ml added to 0.5 ml Chloroform): s | Cold gelation in Heptane ([3]; 0.05 ml added to 0.5 ml Heptane): p | Cold gelation in Hexane ([3]; 0.05 ml added to 0.5 ml Hexane): p | Cold gelation in Toluene ([3]; 0.05 ml added to 0.5 ml Toluene): g | Cold gelation in benzaldehyde ([3]; 0.05 ml added to 0.5 ml benzaldehyde): s | Cold gelation in cyclohexane ([3]; 0.05 ml added to 0.5 ml cyclohexane): g | Cold gelation in diethyl ether ([3]; 0.05 ml added to 0.5 ml diethyl ether): g | Cold gelation in ethylacetate ([3]; 0.05 ml added to 0.5 ml ethylacetate): p | Cold gelation in methyl laurate ([3]; 0.05 ml added to 0.5 ml methyl laurate): g | Cold gelation in n-butyl acetate ([3]; 0.05 ml added to 0.5 ml n-butyl acetate): g | Cold gelation in silicon oil ([3]; 0.05 ml added to 0.5 ml silicon oil): g | Cold gelation in tetrahydrofuran ([3]; 0.05 ml added to 0.5 ml tetrahydrofuran): c | Maximum gelator concentration in 1,2-dichloroethane ([4]; 1,2-dichloroethane): <50% | Maximum gelator concentration in Toluene ([4]; Toluene): <50% | Maximum gelator concentration in cyclohexane ([4]; cyclohexane): <5% | Maximum gelator concentration in methyl laurate ([4]; methyl laurate): <5% | Maximum gelator concentration in n-butylacetate ([4]; n-butylacetate): <50% | Maximum gelator concentration in silicon oil (Dow Corning 702) ([4]; silicon oil (Dow Corning 702)): <50% | Correlation between Tm^−1 and the logarithm of the mole fraction [5]: linear correlation

Reference: US6930203B2, “Gelling agents or thickeners” (Applied NanoSystems B.V., priority 2001, dated 2005)
